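Assay format: 96-well plates, 48-hour exposure. TGI: concentration producing complete growth inhibition.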
What was measured:
Experiment in all cases: inhibition of tumour cell growth, NCI panel, 48 h
[1] = system: SNB-19 CNS
[2] = system: T-47D breast
[3] = system: CCRF-CEM leukemia
[4] = system: UO-31 renal
[5] = system: NCI-H226 lung
[6] = system: 786-0 renal
[7] = system: K-562 leukemia
[8] = system: TK-10 renal
[9] = system: SK-MEL-2 melanoma
[10] = system: BT-549 breast
[11] = system: SK-OV-3 ovarian
[12] = system: IGROV1 ovarian
[13] = system: CAKI-1 renal
[14] = system: EKVX NSCLC
[15] = system: SF-268 CNS
[16] = system: HCC-2998 colon
[17] = system: SF-539 CNS
[18] = system: COLO 205 colon
[19] = system: SK-MEL-28 melanoma
[20] = system: MDA-MB-435
[21] = system: HCT-116 colon
[22] = system: MDA-MB-231 breast
[23] = system: UACC-257 melanoma
[24] = system: NCI-H460 lung
[25] = system: ACHN renal
[26] = system: HOP-92 NSCLC
[27] = system: MDA-N
[28] = system: OVCAR-4 ovarian
[29] = system: OVCAR-3 ovarian
[30] = system: SW-620 colon
[31] = system: U251 CNS
[32] = system: MCF7 breast
[33] = system: HL-60(TB) leukemia
[34] = system: HS 578T breast
[35] = system: LOX IMVI melanoma
[36] = system: SN12C renal
[37] = system: NCI-H23 lung
[38] = system: HCT-15 colon
[39] = system: OVCAR-8 ovarian
[40] = system: SNB-75 CNS
[41] = system: MALME-3M melanoma
[42] = system: PC-3 prostate
[43] = system: KM12 colon
[44] = system: HT29 colon
[45] = system: RPMI-8226 leukemia
[46] = system: SK-MEL-5 melanoma
[47] = system: OVCAR-5 ovarian
[48] = system: A549 NSCLC
[49] = system: HOP-62 NSCLC
[50] = system: SR leukemia
[51] = system: NCI-H522 lung
[52] = system: M14 melanoma
[53] = system: UACC-62 melanoma
[54] = system: NCI/ADR-RES ovarian
[55] = system: SF-295 CNS
[56] = system: A498 renal
[57] = system: DU-145 prostate
[58] = system: RXF 393 renal
[59] = system: MOLT-4 leukemia

In the case of `Cc1c2cccc-2c2cc(O)c3ccccc3c2n1-c1ccc(N(C)C)cc1`, the TGI [1] is reported as 30 µM, the TGI [2] is reported as 829 nM and the TGI [3] is reported as 32.8 µM. The TGI [4] was 24.8 µM, the TGI [5] was 24.4 µM and the TGI [6] was 33.1 µM. It also gave a TGI [7] of 26.8 µM, a TGI [8] of 32.5 µM and a TGI [9] of 31.4 µM. It also gave a TGI [10] of 23.3 µM, a TGI [11] of 29.3 µM and a TGI [12] of 14.5 µM. It also gave a TGI [13] of 31.7 µM, a TGI [14] of 11.7 µM and a TGI [15] of 32.8 µM. For the same compound, the TGI [16] was 35.1 µM, the TGI [17] was 27.9 µM and the TGI [18] was 32.6 µM. The TGI [19] was 35 µM, the TGI [20] was 27.8 µM and the TGI [21] was 35.4 µM. For the same compound, the TGI [22] was 9.75 µM, the TGI [23] was > 100 µM and the TGI [24] was 59 µM. The TGI [25] was 24.9 µM, the TGI [26] was 8 µM and the TGI [27] was 36.9 µM. The TGI [28] was 12.1 µM, the TGI [29] was 19.1 µM and the TGI [30] was 53.6 µM. For the same compound, the TGI [31] was 25.9 µM, the TGI [32] was 17.4 µM and the TGI [33] was > 100 µM. For the same compound, the TGI [34] was 37.5 µM, the TGI [35] was 27.8 µM and the TGI [36] was 33.9 µM. The TGI [37] was 18.2 µM, the TGI [38] was 20 µM and the TGI [39] was 33.8 µM. For the same compound, the TGI [40] was 17.5 µM, the TGI [41] was 29 µM and the TGI [42] was 23.9 µM. It also gave a TGI [43] of 23.1 µM, a TGI [44] of 31.4 µM and a TGI [45] of 26.6 µM. It also gave a TGI [46] of 24.1 µM, a TGI [47] of 24.7 µM and a TGI [48] of 31.6 µM. The TGI [49] was 27.9 µM, the TGI [50] was 26.4 µM and the TGI [51] was 33 µM. For the same compound, the TGI [52] was 27.9 µM, the TGI [53] was 29.5 µM and the TGI [54] was 30.7 µM. For the same compound, the TGI [55] was 22.5 µM and the TGI [56] was 30.7 µM.

With `COc1ccc(N=Nc2c(-c3c(OC)cc4occc4c3OC)[nH]c(=O)c(C#N)c2C)cc1` the TGI [1] was > 100 µM, the TGI [2] was > 100000 nM and the TGI [3] was > 100 µM. For the same compound, the TGI [4] was > 100 µM, the TGI [5] was > 100 µM and the TGI [6] was > 100 µM. The TGI [7] was > 100 µM, the TGI [8] was > 100 µM and the TGI [57] was > 100 µM. The TGI [9] was > 100 µM, the TGI [11] was > 100 µM and the TGI [12] was > 100 µM. The TGI [13] was > 100 µM, the TGI [14] was > 100 µM and the TGI [15] was > 100 µM. For the same compound, the TGI [16] was > 100 µM, the TGI [17] was > 100 µM and the TGI [18] was > 100 µM. For the same compound, the TGI [19] was > 100 µM, the TGI [20] was > 100 µM and the TGI [21] was > 100 µM. The TGI [22] was > 100 µM, the TGI [23] was > 100 µM and the TGI [24] was > 100 µM. The TGI [25] was > 100 µM, the TGI [26] was > 100 µM and the TGI [27] was > 100 µM. The TGI [28] was > 100 µM, the TGI [29] was > 100 µM and the TGI [30] was > 100 µM. For the same compound, the TGI [31] was > 100 µM, the TGI [32] was > 100 µM and the TGI [33] was > 100 µM. For the same compound, the TGI [34] was > 100 µM, the TGI [35] was > 100 µM and the TGI [58] was > 100 µM. The TGI [36] was > 100 µM, the TGI [59] was > 100 µM and the TGI [37] was > 100 µM. The TGI [38] was > 100 µM, the TGI [39] was > 100 µM and the TGI [40] was > 100 µM. For the same compound, the TGI [41] was > 100 µM, the TGI [42] was > 100 µM and the TGI [43] was > 100 µM. For the same compound, the TGI [44] was > 100 µM, the TGI [45] was > 100 µM and the TGI [46] was > 100 µM. For the same compound, the TGI [47] was > 100 µM, the TGI [48] was > 100 µM and the TGI [49] was > 100 µM. The TGI [50] was > 100 µM, the TGI [51] was > 100 µM and the TGI [52] was > 100 µM. For the same compound, the TGI [53] was > 100 µM, the TGI [54] was > 100 µM and the TGI [55] was > 100 µM.

— PubChem BioAssay (NCI)
